Experiments:
[1] = free methotrexate; the 330 mg/kg dose is said to lie above it; cited from earlier work
A 549 = experiment: Proliferation test (formazan dye reduction), 72 h incubation; type: cell-based; details: A 549 cells
From the text: (§1) Proliferationstest (Methotrexat-Reduktion)
(§2) Kontrollexperimente erhalten anstelle der Testsubstanz lediglich Wachstumsmedium. […] Flow bei einer Wellenlänge von 492 nm gemessen.
(§3) Für wiederholte Untersuchungen beträgt der Variationskoeffizient weniger als 15 %. Tabelle 1

HT 29 = experiment: as above; type: cell-based; details: HT 29 cells
From the text: as §1, §2, §3

L1210 = experiment: as above; type: cell-based; details: L1210 cells
From the text: as §1, §2, §3

L1210 Leukämie = experiment: In vivo efficacy on L1210 leukaemia in mice (median survival time, T/C); details: for optimale Dosis: dose giving the greatest antitumoral effect
Description: Aszites Flüssigkeit wird 7 Tage nach der Tumor-Implantation unter sterilen Bedingungen aus DBA2 Mäusen entnommen (weiblich, 18 bis 20 g). Die Aszites Flüssigkeit wird dreimal mit PBS (phosphate buffered saline) gewaschen, gezählt und anschließend in PBS verdünnt bis zu einer Endkonzentration von 10⁶ Zellen pro 0,2 ml.
10⁶ Zellen in 0,2 ml PBS werden DBA2 Mäusen (weiblich, 18 bis 20 g) intraperitoneal appliziert. Dieser Transfer wird einmal wöchentlich wiederholt.
10⁵ Zellen der Aszites Flüssigkeit in 0,2 ml PBS werden BDF1 Mäusen (weiblich, 18 bis 20 g) intraperitoneal appliziert. 6 Tiere werden für jede Substanzkonzentration sowie für die Kontrolle eingesetzt.
a) Die Tiere werden an Tag 1 und Tag 5 nach der Tumorzellenimplantation gewogen. Gewichtsverlust von mehr als 20 % an Tag 5 wird als Indikator eines toxischen Substanzeffektes verwendet.
b) Am Ende des Experiments (Tod aller Tiere oder Erreichen von Tag 60) wird die mediane Überlebenszeit der Behandlungsgruppen bestimmt, sofern diese 65 % überlebende Tiere am Tag 5 enthielten. Die Ermittlung der medianen Überlebenszeit erfolgt entsprechend der Formel: [formula]
In dieser Formel bedeutet X den frühesten Tag, an dem die Zahl der überlebenden Tiere N/2 und Y den frühesten Tag, an dem die Zahl der überlebenden Tiere (N/2)-1 ist. In dem Fall, daß N eine ungerade Zahl ist, entspricht die mediane Überlebenszeit dem Zeitpunkt X.
Die mediane Überlebenszeit wird ausschließlich für im Verlauf des Experiments sterbende Tiere bestimmt. Geheilte Tiere (long time survivors, LTS) werden von der Bestimmung der medianen Überlebenszeit ausgeschlossen und getrennt aufgeführt.
Aus der medianen Überlebenszeit der behandelten Gruppen (MSTTumor) und Kontrollgruppen (MSTControl) wird der antitumorale Effekt-Tumor/control (T/C) entsprechend der Formel [formula] bestimmt. T/C Werte von mehr als 125 % werden als Indikator einer signifikanten antitumoralen Wirksamkeit der Testverbindung angesehen. Die Dosis, die jeweils den größten antitumoralen Effekt bewirkt (optimale Dosierung) ist in Tab. 2 aufgeführt. Noch lebende Tiere an Tag 60 werden als geheilt betrachtet (LTS). Ergebnisse: s. Tabelle 2

[2] = L1210, 3xip/ip/Q3D, at optimal dose

In the case of `CN(Cc1cnc2nc(N)nc(N)c2n1)c1ccc(C(=O)N[C@@H](CCC(=O)O)C(=O)O)cc1` [Methotrexat, N-[4-[[(2,4-diamino-6-pteridinyl)-methyl]methylamino]benzoyl]-glutaminsäure], the LD₅₀ [1] is listed as under 330 mg/kg, the IC₅₀ (A 549) is listed as 0,01 µg/ml and the IC₅₀ (HT 29) is listed as 0,008 µg/ml. The IC₅₀ (L1210) was 0,01 µg/ml, the “Wirkung (T/C %)” value (L1210 Leukämie; L1210, 1xip/ip, at optimal dose) was 123% and the “optimale Dosis” value (L1210 Leukämie; L1210, 1xip/ip) was 100 mg polymerfixiertes Produkt/kg Körpergewicht. The “Wirkung (T/C %)” value (L1210 Leukämie; [2]) was 378%, the toxisch (L1210 Leukämie; [2]) was 1 and the Heilungen (L1210 Leukämie; L1210, 3xip/ip/Q3D, at optimal dose, animals alive at day 60 (LTS)) was 5/6. For the same molecule, the “optimale Dosis” value (L1210 Leukämie; L1210, 3xip/ip/Q3D) was 80 mg polymerfixiertes Produkt/kg Körpergewicht and the “Lebensverlängerungen gegenüber unbehandelten Kontrollen” value (L1210 Leukämie; mice with L1210 leukaemia, single i.p. application of 60 mg/kg body weight methotrexate equivalent) was “nicht wirksam”.
